What was measured:
[1] = test system: rodent model of chronic inflammatory pain (formalin test); assay: Formalin test (intra-plantar formalin) after intraperitoneal administration; assay type: in vivo, rat; settings: male rats, 5 mg/kg IP fumarate salt, 15 min prior to formalin, n=6; for formalin-induced flinching, late (tonic) phase 20-60 min: significantly different from saline P<0.05
Method: A study was performed to screen the analgesic activities of S(−) and R(+) enantiomers of nornicotine following administration by intraperitoneal route (IP) in a rodent model of chronic inflammatory pain (formalin test). Intra-plantar injection of formalin produces a biphasic behavioral response consisting of flinching, lifting and licking behaviors in rodents. The first phase (acute, 0-20 min) results from direct stimulation of nociceptors (nociceptive pain) whereas the second phase (tonic, 20-60 min) involves central sensitization (a characteristic of neuropathic pain). Accordingly, the formalin test was used to determine the analgesic effects of S(−)- and R(+)-nornicotine [Wheeler-Aceto H., Covan A. “Standardization of the rat formalin test for the evaluation of analgesics” Psychopharmacology (1991) 104:35-44]. Formalin (50 mcl) was injected subcutaneously (SC) into the dorsal surface of the hind paw. The rat was placed in a Plexiglas cage and the intensity of pain (number of formalin-induced flinches) was rated in 5 min intervals for 60 min.
A single dose [5 mg/kg in salt form (fumarate)] of each nornicotine enantiomer and saline (control) was administered (IP) 15 min prior to formalin (SC) injection in 6 male rats. Data were presented as time courses of formalin-induced flinches (number) for S(−)-nornicotine, R(+)-nornicotine and saline [FIG. 4A] and areas under the curves (AUC) calculated for phase 1 (acute, 0-20 min) [FIG. 4B] and phase 2 (tonic, 20-60 min) [FIG. 4C].

[2] = test system: rodent model of nociceptive pain (tail-flick test); assay: Tail-flick test after intraperitoneal administration; assay type: in vivo, rat; settings: male Sprague-Dawley rats, 5 mg/kg IP single dose, perchlorate salt, vs saline, n=6; preliminary data
Method: A study was performed to screen the analgesic activities of S(−) and R(+) enantiomers of nornicotine following administration by intraperitoneal route (IP) in a rodent model of nociceptive pain. The responses to acute thermal stimuli were determined using the tail-flick test [D′Amour F. E., Smith D. L. “A method for determining loss of pain sensation” J Pharmacol Exp Ther (1941), 72:74-79]. Tail-flick latency (TFL) was measured by recording the time from the onset of the heat stimulus to the tail to withdrawal of the tail from the heat source, using a standard tail-flick apparatus (EMDIE, Instrument Co., Roanoke, Va.). The sensitivity of the instrument was adjusted to provide an average baseline 2-3 seconds. Cut-off time of 10 s was used to avoid tail damage.
A single dose [5 mg/kg in perch salt form (perchlorate)] of each nornicotine enantiomer was administered (IP) in 6 male rats [Sprague-Dawley; about 90 days old, 350 g, (Harlan, Indianapolis, Ind.)]. Saline (vehicle, 1 ml/kg) served as control. TFL were determined prior to (twice, 15 min apart) and at 5, 15, 30, 45 and 60 min after i.p. administration. Data were presented as time courses of TFL (normalized for pre-injection baseline, s) [FIG. 1A] and areas under the curves (AUC0-60min) [FIG. 1B].

[3] = test system: rodent model of nociceptive pain (tail-flick test); assay: Tail-flick test after intrathecal administration; assay type: in vivo, rat; settings: male rats, 10 mcg IT single dose, perchlorate salt, n=5, P<0.05 post-hoc SNK
Method: A study was performed to screen the analgesic activities of S(−) and R(+) enantiomers of nornicotine following administration by intrathecal route (IT) in a rodent model of nociceptive pain (tail-flick test).
In order to inject these drugs via the IT route chronic catheterization of the spinal subarachnoid space was performed in rats [Yaksh T., Rudy T. “Chronic catheterization of the spinal subarachnoid space” Physiol Behav (1976) 17:1031-1036 (with minor modification)]. Briefly, a 21 cm long P-10 polyethylene tubing (volume 10 mcl) which extended 8.5 cm beyond an incision in the atlanto-occipital membrane was secured to the scull with acrylic cement. The catheter rested in the vicinity of T-12 at the rostral face of the lumbar cord enlargement. The studies were initiated 1 week after implantation of the IT catheter.
A single dose [10 mcg in perch salt form (perchlorate)] of each enantiomer was administered (IT) in 5 male rats. Saline (vehicle; 10 mcl) was used as control. The responses to acute thermal stimuli were determined using the tail-flick test (baseline 2-3 seconds, cut-off 10 seconds). TFL were measured prior to (twice, 15 min apart) and at 5, 10, 15, 30, 45 and 60 min after IT administration. Data were presented as time courses of TFL (normalized for pre-injection baseline, s) [FIG. 2A] and areas under the curves (AUC0-60min) [FIG. 2B].

[4] = test system: rodent model of nociceptive pain (paw withdrawal test); assay: Thermal paw withdrawal test after intraperitoneal administration; assay type: in vivo, rat; settings: male rats, 2.5, 5 and 10 mg/kg IP, free base, n=8; P<0.05 1-way ANOVA
Method: To further characterize the analgesic properties of S(−)nornicotine, a dose-response relationship was determined. Responsiveness to acute thermal noxious stimuli was assessed by a thermal paw withdrawal test [Hargreaves K. et al., “A new sensitive method for measuring thermal nociception in cutaneous hyperalgesia” Pain (1988) 32:77-88]. This test, which uses a ramp heat stimulus on the plantar surface of the paw, appears to generate more consistent analgesic responses to nicotinic drugs as compared to tail flick test. Plantar Stimulator Analgesia Meter (11TC, Life Science, Woodland Hills, Calif.) was used. Briefly, the rat was placed in a clear plastic chamber and allowed to acclimate for 5 min. After the acclimation period, the radiant heat was positioned under the glass floor directly beneath the plantar hind paw. The heat source activated a timer that was controlled by a photocell. The hind paw withdrawal interrupted the photocell and automatically stopped the timer. Latency to paw withdrawal (PWL) was measured to the nearest 0.1 s. […]
S(−)-Nornicotine was administered in three doses (2.5, 5 and 10 mg/kg in form of free base) via the IP route in 8 male rats. […] Responses (PWL, s) were measured prior to and at 5, 10, 15, 30, and 60 min after IP injection. For each rat and at each time point, response was normalized for baseline measured on the day of experiment. […]

[5] = in vivo; cited from earlier work
[6] = following peripheral administration of nicotine; cited from earlier work
[7] = humans; cited from earlier work
[8] = following repeated nicotine dosing; cited from earlier work

c1cncc([C@H]2CCCN2)c1 [R(+)-nornicotine]
formalin-induced flinching, early (acute) phase 0-20 min [1]: Neither enantiomer had significant effect
formalin-induced flinching, late (tonic) phase 20-60 min [1]: attenuated formalin-induced flinching
analgesic effect (tail-flick latency, AUC0-60min) [2]: less pronounced

c1cncc([C@@H]2CCCN2)c1 [S(−)-nornicotine]
analgesic effect (tail-flick latency, AUC0-60min) vs the other enantiomer [3]: significantly greater as compared to R(+)-nornicotine
analgesic effect (tail-flick latency, AUC0-60min) vs saline ([3]; preliminary data): significantly greater as compared to saline
analgesic effect (paw withdrawal latency, AUC0-60min vs log dose) [4]: significantly related to dose
formalin-induced flinching, early (acute) phase 0-20 min [1]: Neither enantiomer had significant effect
formalin-induced flinching, late (tonic) phase 20-60 min [1]: attenuated formalin-induced flinching
analgesic effect (tail-flick latency, AUC0-60min) [2]: significantly greater as compared to saline
potency and toxicity profile compared to R(+)-nornicotine (Dose escalation studies): more favorable potency and toxicity profile

CN1CCCC1c1cccnc1 (centres unmarked) [nicotine, reference compound]
oral bioavailability [5]: 10%
residence in the rat's brain [6]: 52 min
plasma half-life [7]: 1 h

Nornicotine
oral bioavailability (in words) [5]: good oral bioavailability
residence in the rat's brain [6]: 166 min
accumulation in brain compared to nicotine [8]: about 4 fold
plasma half-life [7]: 8 h

From US20100216847A1, “N[…] THE TREATMENT OF PAIN” (UNIVERSITY OF KENTUCKY RESEARCH FOUNDATION, priority 2006, published 2010)
